This is an account of results in ChEMBL document CHEMBL1127762, “Five-membered heterocyclic amines as potential anti-rheumatoid arthritis agents” (Bioorg Med Chem Lett, 1994).

For data set [1], the system named is Rattus norvegicus. Put plainly: Improvement in joint mobility at 33 mg/kg p.o. in rat model of arthritis. It is filed as functional. Conditions: route oral.
A short description of data set [2]: Partition coefficient (logP). Conditions: octanol/water.
For data set [3], the system named is Rattus norvegicus. Put plainly: Percent reduction in paw volume (right primary lesion, days 9-18) by 33 mg/kg p.o. in rats. It is filed as functional. To be noted: route oral.
Data set [4] has as its system Rattus norvegicus. Description: Percent reduction in paw volume ([…], days 9-18) by 33 mg/kg p.o. in rats. It is filed as functional. Conditions: route oral.
For data set [5], the system named is Rattus norvegicus. Description: Percent reduction in paw volume (right primary lesion, days 0-8) by 33 mg/kg p.o. in rats. It is filed as functional. Conditions: route oral.
Data set [6] relates to Rattus norvegicus. Description: Antiarthritic activity by measuring % reduction in paw volume in Sprague Dawley rat, peroral administration of 10 mg/kg, volume change in the uninjected paw([…]) measured from day 9 to day 18. It is filed as functional. Conditions: route oral.
For data set [7], the system named is Rattus norvegicus. Description: Antiarthritic activity by measuring percent reduction in paw volume in Sprague Dawley rat by peroral administration of 33 mg/kg. It is filed as functional. Conditions: route oral.

With `Nc1nc(-c2ccccn2)ns1`, the Reduction in the data set on Rattus norvegicus [1] is on record as 70%; in the data set on Rattus norvegicus [3] it was 44%; in the data set on Rattus norvegicus [4], 65%; in the data set with Rattus norvegicus [5], 8%. Moreover, in data set [2], the logP is 1.05.
On to `C/C=C/C[C@@H](C)[C@@H](O)[C@H]1C(=O)N[C@@H](CC)C(=O)N(C)CC(=O)N(C)[C@@H](CC(C)C)C(=O)N[C@@H](C(C)C)C(=O)N(C)[C@@H](CC(C)C)C(=O)N[C@@H](C)C(=O)N[C@H](C)C(=O)N(C)[C@@H](CC(C)C)C(=O)N(C)[C@@H](CC(C)C)C(=O)N(C)[C@@H](C(C)C)C(=O)N1C` [CYCLOSPORINE], for which the Reduction is given as 77% in the data set on Rattus norvegicus [6] and 51% in the data set with Rattus norvegicus [5].
Consider `Nc1nc(-c2ccncc2)ns1`, for which the Reduction in the data set on Rattus norvegicus [1] amounted to 33%; with Rattus norvegicus [3], 20%; in the data set on Rattus norvegicus [4] it was 74%; with Rattus norvegicus [5] it was 11%. For the same compound, the logP in data set [2] came out at 1.72.
For `Nc1n[nH]c(-c2ccccn2)n1`, the Reduction in the data set on Rattus norvegicus [1] is on record as 21%; with Rattus norvegicus [3], 32%; with Rattus norvegicus [4] it was 60%; in the data set on Rattus norvegicus [5], 3%.
Taken in the same sequence, the figures for `O=C(Nc1nc(-c2ccccc2)ns1)OCC(Cl)(Cl)Cl` were 42%, 45%, 68% and 50%.
Turning to `Nc1ncns1`, the Reduction with Rattus norvegicus [1] is 69%; with Rattus norvegicus [3], 59%; in the data set on Rattus norvegicus [4], 106%; in the data set on Rattus norvegicus [5] it was 45%. The compound also yielded a log partition coefficient (logP) in data set [2] of 0.66.
Turning to `CCCc1nsc(N)n1`, the Reduction is 47% with Rattus norvegicus [1], 40% in the data set on Rattus norvegicus [3], 54% in the data set with Rattus norvegicus [4] and 13% in the data set on Rattus norvegicus [5]. In addition, the logP in data set [2] was determined as 1.12.
On the same counts, the results for `CC(C)(C)c1cc(-c2noc(N)n2)cc(C(C)(C)C)c1O` are 89%, 56%, 103%, 47% and 3.72.
Taken in the same sequence, the figures for `Nc1nc(-c2cnccn2)ns1` were 6%, 17%, 24%, 10% and 0.52.
For the compound `CC(=O)Nc1nc(-c2cc(C(C)(C)C)c(O)c(C(C)(C)C)c2)no1`, the Reduction was 75% in the data set on Rattus norvegicus [1], 66% in the data set on Rattus norvegicus [3], 79% in the data set on Rattus norvegicus [4] and 80% in the data set with Rattus norvegicus [5].
Taken in the same sequence, the figures for `Nc1nc(-c2ccccn2)no1` were 8%, 22%, 66% and 24%.
`Nc1nc(-c2cccnc2)ns1`: the Reduction turned out to be 24% in the data set on Rattus norvegicus [1], 22% with Rattus norvegicus [3], 49% in the data set on Rattus norvegicus [4] and 15% in the data set with Rattus norvegicus [5]. Also, in data set [2], the logP was determined as 1.58.
On the same counts, the results for `Nc1nc(-c2ccc(Cl)cc2)ns1` are 18%, 50%, 46%, 20% and 2.83.
On the same counts, the results for `CC(C)(C)c1nsc(N)n1` are 28%, 30%, 45%, 16% and 1.78.
For `Nc1nc(-c2ccccc2)ns1`, the Reduction with Rattus norvegicus [1] was determined as 13%; in the data set on Rattus norvegicus [3], 51%; in the data set on Rattus norvegicus [4], 84%; in the data set on Rattus norvegicus [5] it was 22%.
As to `Nc1nc(Cc2ccccc2)ns1`, the Reduction with Rattus norvegicus [1] is 36%; in the data set on Rattus norvegicus [3], 42%; in the data set with Rattus norvegicus [4] it was 77%; in the data set with Rattus norvegicus [5], 28%. The logP in data set [2] came out at 2.05.
Take `Nc1nc(-c2ncccn2)ns1`: the Reduction in the data set with Rattus norvegicus [1] is 30%; in the data set with Rattus norvegicus [3] it was 31%; with Rattus norvegicus [4] it was 5%; with Rattus norvegicus [5], 28%. Also, the logP in data set [2] was 0.08.
With `Cc1nsc(N)n1`, the Reduction in the data set on Rattus norvegicus [1] came to 84%; in the data set on Rattus norvegicus [3], 50%; in the data set with Rattus norvegicus [4], 66%; in the data set with Rattus norvegicus [5], 38%. Further, the logP in data set [2] is 0.
In the case of `CC(C)(C)c1ccc(-c2nsc(N)n2)cc1`, the Reduction with Rattus norvegicus [1] stood at 18%; in the data set with Rattus norvegicus [7], 2%; in the data set on Rattus norvegicus [4], 6%; with Rattus norvegicus [5], 27%. In addition, the logP in data set [2] was 1.78.
As to `Nc1nc(-c2cccs2)ns1`, the Reduction is listed as 7% in the data set with Rattus norvegicus [1], 25% in the data set on Rattus norvegicus [3], 43% in the data set with Rattus norvegicus [4] and 6% in the data set with Rattus norvegicus [5]. For the same compound, the logP in data set [2] worked out at 1.77.
On to `Nc1nc[nH]n1` [AMITROLE], for which the Reduction in the data set on Rattus norvegicus [1] was found to be 26%; in the data set on Rattus norvegicus [3], 46%; with Rattus norvegicus [4] it was 57%; in the data set with Rattus norvegicus [5] it was 27.
